In patent US10765621B2, “Extracts of halimione portulacoides and their application” (Cutech Srl, priority 2013, dated 2020):

Experiments:
hair follicles = settings: usual response, indicative; cited from earlier work
IL-1α = IL-1α release by ex-vivo human skin stimulated with 2% SDS (ELISA); type: cell-based
Description: In order to study the biological activity of the extracts from Halimione on the inflammatory response of skin to irritation, the experimental protocol summarized below was adopted: Ex-vivo skin samples (7 mm in diameter) were cultivated for 24 hours in 6-well plates (4 skin samples/well) with 2.5 ml/well of modified Williams E medium.
After 24 hours of culture the culture medium was renewed and the skin samples 2 to 6 received the irritant stimulus (2% SDS) through topical application of 4 μl of preparation on each skin sample. After 3 hours the stimulus was removed by means of cotton buds and then 4 μl of extract or dexamethasone were topically administered to the groups 3 to 6. Stimulus and lenitive treatments were diluted in 50% DMSO.
After a further 24 hours of cultivation, the culture media were separately collected from each group and the released IL-1α quantified via ELISA (BioLegend ELISAMAX cat. n. 434905).
Table 14 reports the average values of IL-1α obtained from the two medium samples (4 skin samples/well) collected for each experimental group.

insulin
Hair follicle growth increment produced by well-known stimulants / positive controls (hair follicles): 10%

C[C@@H]1C[C@H]2[C@@H]3CCC4=CC(=O)C=C[C@]4(C)[C@@]3(F)[C@@H](O)C[C@]2(C)[C@@]1(O)C(=O)CO [Dexam., dexamethasone]
IL-1α released in culture medium (IL-1α; 2% SDS stimulus, then lenitive treatment 10 mM (positive control), 24 h): 9.9 pg/mL

CCCCCCCCCCCCOS(=O)(=O)[O-].[Na+] [SDS]
IL-1α released in culture medium (IL-1α; 2% SDS stimulus without lenitive treatment (negative control), unstimulated control 1.3): 14.8 pg/mL
